Laboratory results published in patent US7447594B2, “Molecular cardiotoxicology modeling” (Ocimum Biosolutions, Inc., priority 2001, dated 2008).

Key:
[1] = system: cellular glutathione; details: cited from earlier work
[2] = cited from earlier work
[3] = design: species or system male Sprague-Dawley rats; details: rat, in vivo, iv
Protocol: Amphotericin B is a polyene, antifungal antibiotic used to treat fungal infections. Its clinical utility is limited by its nephrotoxicity and cardiotoxicity.
The low and high dose level for each compound are provided in the chart below.
Heart • A sagittal cross-section containing portions of the two atria and of the two ventricles was preserved in 10% NBF. The remaining heart was frozen in liquid nitrogen and stored at ˜−80° C.

[4] = rat, in vivo; cited from earlier work
[5] = cited from earlier work; remark: listed apart in the source
[6] = person, small quantity ingested; cited from earlier work
[7] = of 19 women treated with cyclophosphamide, thiotepa, and carboplatin; cited from earlier work
[8] = child, high-dose cyclophosphamide; cited from earlier work
[9] = high-dose patients; cited from earlier work
[10] = cited from earlier work; remark: listed apart in the source
[11] = cited from earlier work; remark: listed apart in the source
[12] = intravenous injection, four hours post-dose; cited from earlier work
[13] = cited from earlier work; for myocardial necrosis: young and mature rats
[14] = normotensive rats; cited from earlier work
[15] = rats 3 months to 2 years old, dosed over two days; cited from earlier work
[16] = patients that do not have heart failure or use insulin; cited from earlier work

Question: Which cellular glutathione levels [1] does the source give for `C=CC=O` [Acrolein, acrolein] here?
Answer: The cellular glutathione levels was “decrease cellular glutathione levels”.

Question: For `COc1cccc2c1C(=O)c1c(O)c3c(c(O)c1C2=O)C[C@@](O)(C(=O)CO)C[C@@H]3O[C@H]1C[C@H](N)[C@H](O)[C@H](C)O1` [adriamycin, doxorubicin], which “serum enzymes (myocardial toxicity)” value ([2]; rat, in vivo) is on record?
Answer: The value was “elevation of serum enzymes such as aspartate transaminase, lactate dehydrogenase, and creatine phosphokinase”.

Question: For `C[C@@H]1[C@H](O)[C@@H](C)/C=C/C=C/C=C/C=C/C=C/C=C/C=C/[C@H](O[C@@H]2O[C@H](C)[C@@H](O)[C@H](N)[C@@H]2O)C[C@@H]2O[C@](O)(C[C@@H](O)C[C@@H](O)[C@H](O)CC[C@@H](O)C[C@@H](O)CC(=O)O[C@H]1C)C[C@H](O)[C@H]2C(=O)O` [amphotericin B], which cardiomyopathy [3] is on record?
Answer: The cardiomyopathy was “some early signs of cardiomyopathy”.

Question: With `C[C@H](CS)C(=O)N1CCC[C@H]1C(=O)O` [captopril] as the compound, how does the “serum enzyme levels and white blood cell counts” value ([2]; captopril pre-treatment before adriamycin) read?
Answer: The value was “significant reduction in serum enzyme levels as well as restoration of white blood cell counts”.

Question: For `CC(C)(C)NCC(O)c1cc(Cl)c(N)c(Cl)c1` (centres unmarked) [clenbuterol], which muscle hypertrophy [4] is on record?
Answer: The muscle hypertrophy was “hypertrophy of the heart and latissimus dorsi muscle”.

Question: And the aortic root dimensions ([5]; in vivo)?
Answer: The aortic root dimensions was “significantly increased aortic root dimensions”.

Question: And the left ventricular dimensions ([5]; vs exercised and control mares)?
Answer: The left ventricular dimensions was “significantly higher left ventricular internal dimension and interventricular septal wall thickness at end diastole”.

Question: What about the “clinical findings after ingestion” value [6] of the same compound?
Answer: The value was “sustained sinus tachycardia, hypokalemia, hypophosphatemia, and hypomagnesemia”.

Question: What does the source list for `O=P1(N(CCCl)CCCl)NCCCO1` (centres unmarked) [cyclophosphamide]?
Answer: patients who developed moderate congestive heart failure [7]: six; cardiac findings [8]: cardiac arrhythmias and intractable hypotension; patients who died of congestive heart failure [9]: Six; patients with clinical cardiotoxicity who were in the high-dose group ([10]; out of five patients who developed clinical cardiotoxicity): four; left ventricular mass index ([10]; twice-daily high-dose treatment (174+/−34 mg/kg), within a week): increase in left ventricular mass index

Question: For `COc1cccc2c1C(=O)c1c(O)c3c(c(O)c1C2=O)C[C@@](O)(C(=O)CO)C[C@@H]3O[C@H]1C[C@H](N)[C@@H](O)[C@H](C)O1` [epirubicin], which “of these patients, deteriorated into congestive heart failure” value ([11]; human, in vivo) is on record?
Answer: The value was 20%.

Question: What about the “patients with a 25% relative reduction in left ventricular ejection fraction” value ([11]; three years after epirubicin treatment, 120 patients) of the same compound?
Answer: Its value is “Approximately 59%”.

Question: Which “early focal myocardial lesions (histopathology)” value [12] does the source give for `NNc1nncc2ccccc12` [hydralazine] here?
Answer: The value was “Lesions were observed”.

Question: What about the “blood pressure and heart rate effects” value ([13]; rat, in vivo) of the same compound?
Answer: The value was “Hypotension and reflex tachycardia”.

Question: What about the myocardial necrosis [13] of the same compound?
Answer: The myocardial necrosis was “Myocardial necrosis was observed in both age groups”.

Question: With `CC(C)NCC(O)c1ccc(O)c(O)c1` (centres unmarked) [isoproterenol] as the compound, how does the myocardial necrosis [13] read?
Answer: The myocardial necrosis was “Myocardial necrosis was observed in both age groups”.

Question: Which results are given for `Nc1cc(N2CCCCC2)nc(N)[n+]1[O-]` [minoxidil]?
Answer: cardiac enlargement [14]: enlargement of the left ventricle, right ventricle, and interventricular septum; heart lesions [15]: interstitial hemorrhages at all dose levels; myocardial necrosis [13]: Myocardial necrosis was observed in both age groups

Question: With `CN(CCOc1ccc(CC2SC(=O)NC2=O)cc1)c1ccccn1` (centres unmarked) [rosiglitazone] as the compound, how does the edema [16] read?
Answer: Its edema is “moderate-to-severe edema”.
